Assay results from paper PMC5578075 (International Journal of Molecular Sciences, 2017).

target: T1, acetylcholinesterase from Electrophorus electricus (electric eel) (Electrophorus electricus, UniProt O42275); experiment: biochemical; details: AChA, IC50 (anti-acetylcholinesterase activity), total extracts of C. officinalis flowers; mean ± SD of five experiments
T1 construct: purchased Sigma-Aldrich C2888
Protocol: For the further detailed studies, samples of the individual flavonoids previously isolated from C. officinalis flowers were used. The acetylcholinesterase inhibition assay was performed using a spectrophotometric method. […] Additionally minor flavonoids of C. officinalis flowers were included for analysis such as 3-O-(2′′-acetyl)-glucosides, 3-O-(2′′,6′′-di-acetyl)-glucosides, 3-O-(3′′-rhamnosyl)-glucosides, 3-O-(4′′-rhamnosyl)-glucosides and 3-O-rhamnosides (Figure 3).
The acetylcholinesterase inhibition assay was performed using a spectrophotometric microplate assay. The reaction mixture consisted of 235.7 µL of 0.1 M phosphate buffer pH 7.4, 20 µL of a solution of acetylcholinesterase (final concentration 0.1 U/mL in 0.1 M phosphate buffer pH 7.4), 2.7 µL of test compound or plant extract solutions in dimethyl sulfoxide (DMSO). The controls contained the corresponding volume of DMSO of test compound solutions. The enzymatic reaction was initiated by the addition of 1.6 µL of α-naphthyl acetate solution in DMSO. After mixing for 90 s and incubation at 25 °C for 90 s, the reaction was stopped with 20 µL of a 5% solution of sodium dodecyl sulfate (SDS) in water. The color was developed with 20 µL of Fast Blue B salt solution (final concentration 0.17 mM in water). The method was realized in 96-well plates. The microplate was read by a Bio-Rad microplate reader Model 3550 UV. Enzyme activity and inhibition were quantified by determination of the absorbance at 600 nm after the formation of the purple-colored diazonium dye as a percentage. […] The percentage of inhibition was calculated relative to a control sample, for which the anti-acetylcholinesterase activity was assessed under identical conditions, but in the absence of the test compound, using the expression:% Inhibition = {[(ACE − AC) − (ATE − AT)]/(ACE − AC)} × 100% where ACE is the absorbance at 600 nm of the control sample with enzyme; AC is the absorbance at 600 nm of the control sample without enzyme; ATE is the absorbance at 600 nm of the test compound (or plant extract) with enzyme; AT is the absorbance at 600 nm of the test compound (or plant extract) without enzyme.

T1 sequence (O42275 24-633): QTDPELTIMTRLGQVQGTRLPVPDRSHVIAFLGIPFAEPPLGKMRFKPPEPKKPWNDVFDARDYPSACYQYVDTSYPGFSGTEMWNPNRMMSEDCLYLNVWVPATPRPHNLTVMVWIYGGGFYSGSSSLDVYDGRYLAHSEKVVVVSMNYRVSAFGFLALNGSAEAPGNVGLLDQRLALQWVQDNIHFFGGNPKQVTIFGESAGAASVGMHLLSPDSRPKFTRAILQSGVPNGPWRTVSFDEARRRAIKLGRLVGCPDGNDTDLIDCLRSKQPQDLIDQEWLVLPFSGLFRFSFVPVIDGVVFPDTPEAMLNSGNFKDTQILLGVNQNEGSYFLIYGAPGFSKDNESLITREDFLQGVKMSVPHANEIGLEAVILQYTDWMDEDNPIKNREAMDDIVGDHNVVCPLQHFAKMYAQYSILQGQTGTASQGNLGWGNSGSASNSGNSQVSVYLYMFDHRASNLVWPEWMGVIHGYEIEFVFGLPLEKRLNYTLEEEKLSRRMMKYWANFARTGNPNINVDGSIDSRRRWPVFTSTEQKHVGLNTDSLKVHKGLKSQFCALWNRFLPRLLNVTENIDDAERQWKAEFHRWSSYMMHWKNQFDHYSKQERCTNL

Question: Which IC50 does the source give for CN(C)C(=O)Oc1cccc([N+](C)(C)C)c1 [neostigmine, neostigmine bromide, reference compound] here?
Answer: Its IC50 is 3.36 µM.

same assay, conditions: Anti-acetylcholinesterase activity, IC50, individual flavonoids; mean ± SD of three experiments

Question: How did the IC50 turn out when COc1cc(-c2oc3cc(O)cc(O)c3c(=O)c2O)ccc1O [Isorhamnetin, 3,5,7,4′-tetrahydroxy-3′-methoxyflavone] was run?
Answer: Its IC50 is 24.2 ± 0.74 µM.

Question: Which IC50 does the source give for C[C@@H]1O[C@@H](OC[C@H]2O[C@@H](Oc3c(-c4ccc(O)c(O)c4)oc4cc(O)cc(O)c4c3=O)[C@H](O)[C@@H](O)[C@@H]2O)[C@H](O)[C@H](O)[C@H]1O [Quercetin 3-O-(6″-Rhap)-Glcp, quercetin-3-O-rutinoside] here?
Answer: Its IC50 is 72.1 ± 2.04 µM.

Question: How did the IC50 turn out when O=c1c(O[C@@H]2O[C@H](CO)[C@@H](O)[C@H](O)[C@H]2O)c(-c2ccc(O)c(O)c2)oc2cc(O)cc(O)c12 [Quercetin 3-O-Glcp, quercetin-3-O-glucoside] was run?
Answer: The IC50 was 70.1 ± 1.82 µM.

Question: For CC1OC(Oc2c(-c3ccc(O)c(O)c3)oc3cc(O)cc(O)c3c2=O)C(O)C(O)C1O (stereo not shown) [Quercetin 3-O-Rhap, quercetin-3-O-rhamnoside], which IC50 is on record?
Answer: Its IC50 is 48.8 ± 1.26 µM.

Question: Which IC50 does the source give for CN(C)C(=O)Oc1cccc([N+](C)(C)C)c1 [neostigmine, neostigmine bromide, reference compound] here?
Answer: Its IC50 is 3.37 µM.

same assay, conditions: individual flavonoids; mean ± SD of three experiments; read-out: Anti-acetylcholinesterase activity, IC50

Question: With COc1cc(-c2oc3cc(O)cc(O)c3c(=O)c2OC2OC(COC(C)=O)C(O)C(O)C2OC(C)=O)ccc1O (stereo not shown) [Isorhamnetin 3-O-(2″,6″-di-Ac)-Glcp, isorhamnetin-3-O-(2′′,6′′-di-acetyl)-glucoside] as the compound, how does the IC50 read?
Answer: The IC50 was 51.3 ± 1.53 µM.

Question: With COc1cc(-c2oc3cc(O)cc(O)c3c(=O)c2OC2OC(COC3OC(C)C(O)C(O)C3O)C(O)C(O)C2OC2OC(C)C(O)C(O)C2O)ccc1O (stereo not shown) [Isorhamnetin 3-O-(2″,6″-di-Rhap)-Glcp, isorhamnetin-3-O-(2′′,6′′-di-rhamnosyl)-glucoside] as the compound, how does the IC50 read?
Answer: Its IC50 is 98.5 ± 3.04 µM.

Question: How did the IC50 turn out when COc1cc(-c2oc3cc(O)cc(O)c3c(=O)c2OC2OC(CO)C(O)C(O)C2OC(C)=O)ccc1O (stereo not shown) [Isorhamnetin 3-O-(2″-Ac)-Glcp, isorhamnetin-3-O-(2′′-acetyl)-glucoside] was run?
Answer: Its IC50 is 70.9 ± 1.84 µM.

Question: COc1cc(-c2oc3cc(O)cc(O)c3c(=O)c2OC2OC(CO)C(O)C(O)C2OC2OC(C)C(O)C(O)C2O)ccc1O (stereo not shown) [Isorhamnetin 3-O-(2″-Rhap)-Glcp, isorhamnetin-3-O-(2′′-rhamnosyl)-glucoside] was tested. Which IC50 did it give?
Answer: The IC50 was 94.3 ± 2.82 µM.

Question: For COc1cc(-c2oc3cc(O)cc(O)c3c(=O)c2OC2OC(CO)C(O)C(OC3OC(C)C(O)C(O)C3O)C2O)ccc1O (stereo not shown) [Isorhamnetin 3-O-(3″-Rhap)-Glcp, isorhamnetin-3-O-(3′′-rhamnosyl)-glucoside], which IC50 is on record?
Answer: Its IC50 is 91.2 ± 2.73 µM.

Question: Which IC50 does the source give for COc1cc(-c2oc3cc(O)cc(O)c3c(=O)c2OC2OC(CO)C(OC3OC(C)C(O)C(O)C3O)C(O)C2O)ccc1O (stereo not shown) [Isorhamnetin 3-O-(4″-Rhap)-Glcp, isorhamnetin-3-O-(4′′-rhamnosyl)-glucoside] here?
Answer: Its IC50 is 92.1 ± 2.85 µM.

Question: COc1cc(-c2oc3cc(O)cc(O)c3c(=O)c2OC2OC(COC(C)=O)C(O)C(O)C2O)ccc1O (stereo not shown) [Isorhamnetin 3-O-(6″-Ac)-Glcp, isorhamnetin-3-O-(6′′-acetyl)-glucoside] was tested. Which IC50 did it give?
Answer: Its IC50 is 68.2 ± 1.71 µM.

Question: How did the IC50 turn out when COc1cc(-c2oc3cc(O)cc(O)c3c(=O)c2O[C@@H]2O[C@H](CO[C@@H]3O[C@@H](C)[C@H](O)[C@@H](O)[C@H]3O)[C@@H](O)[C@H](O)[C@H]2O)ccc1O [Isorhamnetin 3-O-(6″-Rhap)-Glcp, isorhamnetin-3-O-rutinoside] was run?
Answer: Its IC50 is 97.3 ± 2.91 µM.

Question: With COc1cc(-c2oc3cc(O)cc(O)c3c(=O)c2OC2OC(CO)C(O)C(O)C2O)ccc1O (stereo not shown) [Isorhamnetin 3-O-Glcp, isorhamnetin-3-O-glucoside] as the compound, how does the IC50 read?
Answer: The IC50 was 89 ± 2.49 µM.

Question: COc1cc(-c2oc3cc(O)cc(O)c3c(=O)c2OC2OC(C)C(O)C(O)C2O)ccc1O (stereo not shown) [Isorhamnetin 3-O-Rhap, isorhamnetin-3-O-rhamnoside] was tested. Which IC50 did it give?
Answer: Its IC50 is 74 ± 2.14 µM.

Question: With CC(=O)OCC1OC(Oc2c(-c3ccc(O)c(O)c3)oc3cc(O)cc(O)c3c2=O)C(OC(C)=O)C(O)C1O (stereo not shown) [Quercetin 3-O-(2″,6″-di-Ac)-Glcp, quercetin-3-O-(2′′,6′′-di-acetyl)-glucoside] as the compound, how does the IC50 read?
Answer: The IC50 was 36.5 ± 1.02 µM.

Question: CC1OC(OCC2OC(Oc3c(-c4ccc(O)c(O)c4)oc4cc(O)cc(O)c4c3=O)C(OC3OC(C)C(O)C(O)C3O)C(O)C2O)C(O)C(O)C1O (stereo not shown) [Quercetin 3-O-(2″,6″-di-Rhap)-Glcp, quercetin-3-O-(2′′,6′′-di-rhamnosyl)-glucoside] was tested. Which IC50 did it give?
Answer: The IC50 was 94.9 ± 2.65 µM.

Question: With CC(=O)OC1C(Oc2c(-c3ccc(O)c(O)c3)oc3cc(O)cc(O)c3c2=O)OC(CO)C(O)C1O (stereo not shown) [Quercetin 3-O-(2″-Ac)-Glcp, quercetin-3-O-(2′′-acetyl)-glucoside] as the compound, how does the IC50 read?
Answer: Its IC50 is 48 ± 1.2 µM.

Question: Which IC50 does the source give for CC1OC(OC2C(Oc3c(-c4ccc(O)c(O)c4)oc4cc(O)cc(O)c4c3=O)OC(CO)C(O)C2O)C(O)C(O)C1O (stereo not shown) [Quercetin 3-O-(2″-Rhap)-Glcp, quercetin-3-O-(2′′-rhamnosyl)-glucoside] here?
Answer: The IC50 was 71.9 ± 1.94 µM.

Question: Which IC50 does the source give for CC1OC(OC2C(Oc3c(-c4ccc(O)c(O)c4)oc4cc(O)cc(O)c4c3=O)OC(C)C(O)C(O)C2O)C(O)C(O)C1O (stereo not shown) [Quercetin 3-O-(2″-Rhap)-Rhap, quercetin-3-O-(2′′-rhamnosyl)-rhamnoside] here?
Answer: The IC50 was 67.9 ± 1.76 µM.

Question: With CC1OC(OC2C(O)C(CO)OC(Oc3c(-c4ccc(O)c(O)c4)oc4cc(O)cc(O)c4c3=O)C2O)C(O)C(O)C1O (stereo not shown) [Quercetin 3-O-(3″-Rhap)-Glcp, quercetin-3-O-(3′′-rhamnosyl)-glucoside] as the compound, how does the IC50 read?
Answer: The IC50 was 69.1 ± 1.84 µM.

Question: For CC1OC(OC2C(CO)OC(Oc3c(-c4ccc(O)c(O)c4)oc4cc(O)cc(O)c4c3=O)C(O)C2O)C(O)C(O)C1O (stereo not shown) [Quercetin 3-O-(4″-Rhap)-Glcp, quercetin-3-O-(4′′-rhamnosyl)-glucoside], which IC50 is on record?
Answer: Its IC50 is 70.3 ± 1.9 µM.

Question: How did the IC50 turn out when CC(=O)OCC1OC(Oc2c(-c3ccc(O)c(O)c3)oc3cc(O)cc(O)c3c2=O)C(O)C(O)C1O (stereo not shown) [Quercetin 3-O-(6″-Ac)-Glcp, quercetin-3-O-(6′′-acetyl)-glucoside] was run?
Answer: The IC50 was 45.2 ± 1.12 µM.

same assay, conditions: negative control

Question: [Cl-].[Na+] [NaCl, reference compound] was tested. Which “Anti-acetylcholinesterase activity of the negative control, in words” value did it give?
Answer: Its value is “inactive”.
